What all share (assay): NCI-60 cell line screen, 48 h
Assay [1] concerns 786-0 renal.
Assay [2] relates to CCRF-CEM leukemia.
Assay [3] relates to IGROV1 ovarian.
For assay [4], the system named is MDA-MB-231 breast.
The test system of assay [5] is MDA-MB-435.
Assay [6] has as its system MOLT-4 leukemia.
The subject of assay [7] is NCI-H522 lung.
The test system of assay [8] is RPMI-8226 leukemia.
The test system of assay [9] is SN12C renal.
Assay [10] relates to EKVX NSCLC.

Several values for one entry are separate records, joined by “and”; a condition that tells them apart may be missing. Identical values can stand only once.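 Where inhibition never reached the appropriate level, the endpoint shown equals the highest concentration tested. Otherwise, values were interpolated linearly from a five-concentration, 48-hour dose response in 96-well plates. At the GI50, growth is halved. TGI is the concentration that stops growth completely.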 Bounds are passed on as bounds.

Take `Cc1cc(Cl)cc(OCCn2cc(F)cn2)c1-c1nc(N)nc2c1CN(C(=O)NCC(C)(F)F)C2`: the GI50 in [1] was 3.18 µM; in assay [2], 0.0507 µM; in [3], 0.138 µM; in assay [4], 0.257 µM; in assay [5], 0.0578 µM; in assay [6], 0.112 µM. The GI50 in assay [7] was 0.0781 µM; in assay [9], 0.0745 µM. The TGI in [1], in assay [2], in [3], in assay [4], in assay [5] and in assay [6] was more than 100 µM in each case. Also, the TGI in [7], in [8] and in assay [9] was more than 100 µM each time.

For the molecule `Cc1ccc(S(=O)(=O)Nc2ccccc2C=O)cc1`, the TGI in [1] turned out to be 35.9 µM; in assay [10], 61.1 µM; in [3] it was 38.3 µM; in [4], 41 µM; in assay [5], 34.9 µM; in [6] it was 34.5 µM. Moreover, the TGI in [7] is 82.1 µM; in [8] it was 36 µM; in assay [9], 45 µM.

As for `COc1cc(-c2oc(=O)ccc2C#Cc2ccccn2)cc(OC)c1OC`, the GI50 is 4.47 µM in assay [1]; 2.14 µM in assay [2]; 8.07 µM in assay [10]; 3.57 µM in assay [4]; 0.171 µM in [5]; 4.14 µM in [6]. Further, the figures for the GI50 in assay [8] and in assay [9] were 1.8 µM and 5.5 µM, respectively. Moreover, the TGI is more than 100 µM in assay [1]; more than 30 µM in assay [2]; more than 100 µM in assay [10]; more than 72.4 µM in [4]; 0.932 µM in [5]; more than 100 µM in assay [6]. Further, the results for the TGI in [8] and in assay [9] were 9.59 µM and more than 100 µM, respectively.

For the molecule `NC(=S)N/N=C/C(=O)O`, the GI50 in assay [1] is more than 100 µM; in assay [2], 65.4 µM; in assay [3], 43.6 µM; in [4] it was 81.6 µM; in assay [5], more than 100 µM; in [6] it was 72.5 µM. Also, the GI50 in assay [7], in assay [8] and in [9] was more than 100 µM each time. In addition, the TGI in assay [1], in [2], in assay [3], in [4], in assay [5] and in [6] was more than 100 µM in each case. Further, the TGI in assay [7], in [8] and in assay [9] was more than 100 µM throughout.

Take `Nc1ccc([N+](=O)[O-])cc1N=C/C=C/c1ccccc1`: the GI50 was 23.3 µM in assay [1]; 19.1 µM in assay [10]; 7.48 µM in [3]; 7.57 µM in assay [4]; 3.89 µM in assay [6]; 4.47 µM in [7]. For the same molecule, the values for the GI50 in assay [8] and in assay [9] were 5.05 µM and 8.06 µM, respectively. The TGI is more than 100 µM in assay [1]; more than 100 µM in assay [10]; 42.7 µM in assay [3]; more than 100 µM in [4]; more than 100 µM in [6]; 59 µM in [7]. Also, the TGI in assay [8] and in assay [9] was more than 100 µM in each case.

For `COC(=O)c1ccc2c(c1)nc(NC(=O)c1ccccc1)n2CCCc1ccccc1`, the GI50 was 4.77 µM in [1]; 1.86 µM in assay [2]; 5.01 µM in assay [3]; 6.26 µM in assay [4]; 3.4 µM in [5]; 2.78 µM in [6]. The values for the GI50 in assay [7], in [8] and in [9] were 3.58 µM, 5.31 µM and 17.6 µM, respectively. Besides, the TGI in assay [1], in assay [2], in assay [3], in [4], in assay [5] and in assay [6] was more than 100 µM each time. Besides, the TGI in [7] is 99.3 µM; in [8], more than 100 µM; in assay [9], more than 100 µM.

With `C[N+](C)(C)CC1CCCc2ccccc2C1=O` (stereo not given), the GI50 is 8.46 µM in assay [1]; 0.42 µM in assay [2]; 0.388 µM in assay [6]; 0.861 µM in [7]; 18.9 µM in assay [9]. In addition, the TGI is 6.44 µM and 21.7 µM in assay [1]; 5.77 µM and 1.11 µM in assay [2]; 14.5 µM in assay [10]; 31.7 µM in assay [3]; 30.6 µM in assay [4]; 11 µM in assay [5]. The TGI in assay [6] is 7.79 µM and 1.06 µM; in assay [7], 3.23 µM and 2.36 µM; in assay [9], 38.5 µM.

On to `Cn1cc(C2=C(c3ccc(N)cc3)C(=O)NC2=O)c2ccccc21`, for which the GI50 was 11.9 µM in [1]; 12.3 µM in assay [2]; more than 23.7 µM in assay [3]; more than 23 µM in [4]; 5.71 µM in assay [5]; 9.3 µM in assay [6]. Further, the GI50 was 15.4 µM in assay [7], more than 23.5 µM in assay [8] and 16.3 µM in assay [9]. Further, the TGI was more than 25 µM in assay [1]; more than 25 µM in assay [2]; more than 25 µM in [3]; more than 25 µM in [4]; 24.4 µM in assay [5]; more than 25 µM in assay [6]. Further, the TGI in assay [7], in assay [8] and in assay [9] was more than 25 µM throughout.

In the case of `Cc1cc(C)c2c(n1)sc1c(Nc3ccc(Cl)cc3)ncnc12`, the GI50 in [1] was less than 0.01 µM; in assay [2], less than 0.01 µM; in [3], more than 100 µM; in assay [5], less than 0.01 µM; in assay [6], less than 0.01 µM; in assay [7] it was less than 0.01 µM. Besides, the GI50 is 0.0197 µM in assay [8] and 0.0312 µM in assay [9]. Further, the TGI in assay [2], in [3], in assay [5], in assay [6], in [7] and in [8] was more than 100 µM throughout. In assay [9], this molecule registered a TGI of more than 100 µM.

For `CSc1nc(=O)n(CCC#N)nc1SC`, the TGI in assay [1] is 44.6 µM; in [10], more than 100 µM; in [3], more than 100 µM; in assay [4], more than 100 µM; in assay [5] it was more than 100 µM; in assay [6] it was 67.6 µM. Besides, the results for the TGI in assay [7], in assay [8] and in assay [9] were 61.8 µM, 98.4 µM and more than 100 µM, respectively.

Source of the values: PubChem BioAssay (NCI).
